According to patent US20120202877A1 (priority 2009, published 2012):

Legend:
[1] = system: A/Paris/0497/2007 (H1N1, H274); test: microbe, parasite or virus in culture; type: cell-based, influenza virus; conditions: for EC50: Influenza A virus, H1N1, 72 h, read-out: EC50, 50% reduction of the average plaque diameter
A/Paris/908/97 (H3N2) = test: microbe, parasite or virus in culture; type: cell-based, influenza virus; conditions: for EC50: Influenza A virus, H3N2, 72 h, read-out: EC50, 50% reduction of the average plaque diameter
[2] = target: influenza A virus N1 sialidase [A/HongKong/156/97 (H5N1)] wild type (Influenza A virus, UniProt Q9W7Y7); test: biochemical
[3] = target: influenza A virus N2 sialidase [A/Paris/908/97 (H3N2)] (Influenza A virus, UniProt Q9EA36); type: biochemical

| SMILES | EC50 [1] [µM] | EC50 (A/Paris/908/97 (H3N2)) [µM] | change in plaque size [1] | change in plaque size (A/Paris/908/97 (H3N2)) | Ki [2] [µM] | Ki [3] [µM] |
| --- | --- | --- | --- | --- | --- | --- |
| C=CCC1=C(C(=O)O)O[C@@H]([C@H](O)[C@H](O)CO)[C@H](NC(C)=O)[C@H]1O [Compound 7, 5-Acetamido-2,6-anhydro-3,5-dideoxy-3-C-(prop-2′-enyl)-D-glycero-D-galacto-non-2-en-onic acid] | 1800 | > 5000 | – | – | – | – |
| CC(=O)NC1C(O)C(CC=Cc2ccc(C)cc2)=C(C(=O)O)OC1C(O)C(O)CO (stereo not shown) [Compound 9d] | 80 | > 1000 | significant decrease in plaque size | little or no visible difference in plaque size | – | – |
| CC(=O)N[C@H]1[C@H]([C@H](O)[C@H](O)CO)OC(C(=O)O)=C[C@@H]1O [Neu5Ac2en, reference compound] | 20 | 20 | – | – | 0.97 ± 0.15 | 1.24 ± 0.23 |
